According to US12648947B2, “Heterocyclic derivatives, pharmaceutical compositions and their use in the treatment, amelioration or prevention of fibrotic disease” (TOLREMO THERAPEUTICS AG, priority 2020, dated 2026):
Like-named read-outs stand apart in the source and are kept apart here.

What was measured:
[1] = tested on: TGF-β1 induced Fibronectin 1 (FN1) production by IPF diseased donor's bronchial epithelial cells; assay: Epithelial-to-Mesenchymal Transition (EMT) assay; assay type: cell-based; set-up: Δ Percentage Inhibition (PIN), [%]: concentration or dose not given beside the values; conditions: for IC50: Epithelial cell, 72 h, 5.0 ng/ml TGF-β1, 72 h, read-out: IC50 FN1, Log (converted); for Δ Percentage Inhibition (PIN), [%]: FN1
Experimental: Bronchial epithelial cells (BEC) from 3 IPF donors (PatA-C) were seeded for automated high-content/high-throughput microscopy. At day 2 cell culture medium was refreshed in the wells and cells grown until day 5, at which drug treatment was initiated.
Drug addition was done 1 h before stimuli addition (5.0 ng/ml TGF-β1). For trigger controls wells with BEC were treated with medium (unstimulated control) or 5.0 ng/ml TGF-β1 (stimulated control). For assay controls fibroblasts were treated with 5.0 ng/ml TGF-β1+0.1% DMSO (unstimulated control) or 5.0 ng/ml TGF-β1+1 μM SB525334 (positive control for inhibition). The reference compound and clinically approved drug nintedanib was added as concentration response curve (CRC) with 8-points in a semi-Log dilution staring from 10 μM. […] Wells were fixed with 4% paraformaldehyde and stained for Fibronectin (FN1) expression using immunofluorescence and with DAPI to assess nuclei number per well. Image acquisition and high content analysis (HCA) of FN1 and DAPI was done on a high content microscope.
(§1) Analysis of αSMA/FN1: Images were segmented and quantificatied for αSMA/FN1 immunoreactivity by an HCA algorithm, with density x area (DxA) output. Data were normalized from raw αSMA/FN1 (DxA) to percentage inhibition (PIN) values, on a plate-to-plate basis
(§2) [formula] • μp is the average αSMA/FN1 value of the positive control (TGF-β1+1 μM SB525334) • μn is the average of αSMA/FN1 value of the vehicle control (TGF-β1+0.1% DMSO) • Xi is the compound αSMA/FN1 value
(§3) Analysis of % Remaining cells: DAPI fluorescence applied for HCA-based quantification of the number of imaged cells, on a plate-to-plate basis.
(§4) [formula] • μn is the average numbers of nuclei of the vehicle control (TGF-β1+0.1% DMSO) • Xi is the compound number of nuclei

[2] = tested on: TGF-β1 induced α-smooth muscle actin (αSMA) production by IPF diseased donor's lung fibroblast; assay: Fibroblast-to-Myofibroblast Transition (FMT) assay; assay type: cell-based; conditions: for IC50: Fibroblast, 72 h, 1.25 ng/ml TGF-β1, 72 h, read-out: IC50 αSMA, Log (converted); for Potential toxicity Log [M]: concentration with >25% cell loss (DAPI nuclei); for Max. Percentage Inhibition (PIN), [%]: αSMA
Experimental: Lung fibroblasts from 3 IPF donors (Pat1-3) were seeded for automated high-content/high-throughput microscopy. At day 2 cell culture medium was refreshed in the wells and fibroblast grown until day 5, at which point drug treatment was initiated.
Drug addition was done 1 h before stimuli addition (1.25 ng/ml TGF-β1). For trigger controls wells with fibroblasts were treated with medium (unstimulated control) or 1.25 ng/ml TGF-β1 (stimulated control). For assay controls fibroblasts were treated with 1.25 ng/ml TGF-β1+0.1% DMSO (unstimulated control) or 1.25 ng/ml TGF-β1+1 μM SB525334 (positive control for inhibition). Reference compound and clinically approved drug nintedanib was added as concentration response curve (CRC) with 8-points in a semi-Log dilution starting from 10 μM.
Wells were fixed with 4% paraformaldehyde and stained for α-smooth muscle actin (αSMA) expression using immunofluorescence and with DAPI to assess nuclei number per well. Image acquisition and high content analysis (HCA) of αSMA and DAPI was done on a high content microscope.
as §1, §2, §3, §4

[3] = tested on: NCI-H1975 lung cancer cells; assay: Fibrotic gene expression analysis by RNA sequencing; assay type: cell-based; conditions: 1 μM, 24 h vs DMSO
Experimental: (§5) 250000 HCC827 (ATCC; CRL 2868) cells/well or 200000 NCI-H1975 (ATCC; CRL 5908) cells/well were seeded in 6-well dishes (Greiner Bio-One, 7657160) the day before drug treatment in RPMI medium containing 10% FCS and 2 mM L-Glutamine. […] Subsequently cells were washed 3 times with 2 ml PBS and lysed in 300 μl lysis buffer (RA1+1% TCEP [Sigma 646547]). RNA is extracted according to Macherey-Nagel NucleoSpin 8 RNA Kit protocol for vacuum (740698.5) for RNA extraction and RNA is eluted in H2O. RNA Library preparation and sequqnening was done externally. In short, RNA sequencing libraries were generated using TruSeq RNA Sample Prep Kit v2 following manufacturer's recommendations and index codes were added to attribute sequences to each sample. Samples were sequenced using an Illumnia platform, with paired-end reads. Illumina SBS technology utilizes a proprietary reversible terminator-based method that detects single bases as they are incorporated into DNA template strands. The original data obtained from the high throughput sequencing platforms were transformed to sequenced reads by base calling. Raw data are recorded in a FASTQ file which contains sequenced reads and corresponding sequencing quality information and were further processed to obtain transcripts per million values (TPM) for variable genes.

[4] = tested on: HCC827 lung cancer cells; assay: as above; assay type: cell-based; conditions: 1 μM, 24 h vs DMSO
Experimental: as §5

[5] = molecular target: T1, CBP bromodomain (Homo sapiens, UniProt Q92793); assay: CBP bromodomain binding assay (TR-FRET); conditions: 1 hour incubation at room temperature
T1 construct: purchased Cayman chemicals 600850
Experimental: Compounds solutions of 10 mM in DMSO were pre-diluted in DSMO to 25× stock solutions in DMSO. These were then diluted down to 4× in Assay buffer. A dilution series in Assay buffer was performed keeping the DMSO concentration stable. 5 μl compound in assay buffer was transferred into the assay plate (provided by assay kit) and the TR-FRET assay Cayman chemicals; 600850) was performed using the manufacture's instructions. After 1 hour incubation at room temperature in the darks, assay plates were read in a Tecan M1000 plate reader using the TR-FRET mode (top read; excitation 340 nm bandwidth 20 nM; emission 620 nm bandwidth 7 nM; gain optimal determined for the first well, number of flashes: 5; flash frequency 100 Hz; integration time: 500 μs, lag time: 100 μs, room temperature). The TR-FRET ratio was calculated by dividing 670 nm emission by 620 nm emission. […] Values were log transformed and non-linear regression with variable slope (4 parameters) was used to fit values to a dose-response curve to evaluate EC50 values (see table 5 below).

T1 sequence (Q92793 1085-1192 limits assumed): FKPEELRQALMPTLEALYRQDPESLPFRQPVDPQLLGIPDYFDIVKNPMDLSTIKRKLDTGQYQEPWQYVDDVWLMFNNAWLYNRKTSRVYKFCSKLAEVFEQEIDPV

COc1cncc(-c2cc(Nc3cccc(F)c3)nc([C@@H]3CC[C@H](C)N(C(C)=O)C3)n2)c1 [Compound 00004]
inhibition of TGF-β1-mediated FN1 expression ([1]; BEC from 2 IPF donors): full concentration-dependent inhibition
inhibition of TGF-β1-mediated FN1 expression ([1]; BEC from one IPF donor, partial = ΔPIN <75): partial
modulation of the number of nuclei ([1]; BEC, indicative of absence of potential cytotoxic side-effects): No modulation
IC50 ([1]; PatA BEC donor): 5.01 µM
IC50 ([1]; PatB BEC donor): 1 µM
IC50 ([1]; PatC BEC donor): 2 µM
Δ Percentage Inhibition (PIN), [%] ([1]; PatA BEC donor): 62.5%
Δ Percentage Inhibition (PIN), [%] ([1]; PatB BEC donor): 84.9%
Δ Percentage Inhibition (PIN), [%] ([1]; PatC BEC donor): 116.3%
IC50 ([2]; Pat1 lung fibroblast donor): 1.26 µM
IC50 ([2]; Pat2 lung fibroblast donor): 2.51 µM
IC50 ([2]; Pat3 lung fibroblast donor): 2 µM
inhibition of TGF-β1-mediated αSMA expression ([2]; all 3 IPF donors' lung fibroblast): full concentration-dependent inhibition
Potential toxicity Log [M] ([2]; Pat1): >−5.2 Log [M]
Potential toxicity Log [M] ([2]; Pat2): >−5.2 Log [M]
Potential toxicity Log [M] ([2]; Pat3): >−5.2 Log [M]
Max. Percentage Inhibition (PIN), [%] ([2]; Pat1 lung fibroblast donor): 90.3%
Max. Percentage Inhibition (PIN), [%] ([2]; Pat2 lung fibroblast donor): 127.1%
Max. Percentage Inhibition (PIN), [%] ([2]; Pat3 lung fibroblast donor): 105.1%
expression of genes up-regulated during fibrotic disease (MMP, FN1, COL1A1), mRNA abundance (TPM) [3]: reduces expression of genes
expression of genes up-regulated during fibrotic disease (MMP, FN1, COL1A1), mRNA abundance (TPM) [4]: reduces expression of genes

CC(=O)N1C[C@H](c2nc(Nc3cc(F)c4cc[nH]c4c3)cc(-c3cccnc3)n2)CC[C@@H]1C [Compound 00040]
EC50 [5]: < 0.2 µM

CC(=O)N1C[C@H](c2nc(Nc3ccccc3)cc(-c3cncnc3)n2)CC[C@@H]1C [Compound 00062]
EC50 [5]: 0.2 to 1 µM

CC(=O)N1C[C@H](c2nc(Nc3ccccc3)cc(-c3cncc4[nH]ccc34)n2)CC[C@@H]1C [Compound 00063]
EC50 [5]: < 0.2 µM

CC(=O)N1C[C@H](c2nc(Nc3cncc(C)c3)cc(-c3cncc4[nH]ccc34)n2)CC[C@@H]1C [Compound 00075]
EC50 [5]: < 0.2 µM

CC(=O)N1C[C@H](c2nc(Nc3ccncc3)cc(-c3cccnc3)n2)CC[C@@H]1C [Compound 00077]
EC50 [5]: 0.2 to 1 µM

COC(=O)c1ccc2c(c1)NC(=O)/C2=C(\Nc1ccc(N(C)C(=O)CN2CCN(C)CC2)cc1)c1ccccc1 [Nintedanib, reference compound]
IC50 ([1]; PatA BEC donor): 10 µM
IC50 ([1]; PatC BEC donor): 0.0631 µM
Δ Percentage Inhibition (PIN), [%] ([1]; PatA BEC donor): 45.9%
Δ Percentage Inhibition (PIN), [%] ([1]; PatB BEC donor): 81.7%
Δ Percentage Inhibition (PIN), [%] ([1]; PatC BEC donor): 72.1%
IC50 ([2]; Pat1 lung fibroblast donor): 0.631 µM
IC50 ([2]; Pat2 lung fibroblast donor): 0.398 µM
IC50 ([2]; Pat3 lung fibroblast donor): 0.2 µM
Potential toxicity Log [M] ([2]; Pat1): >−5.5 Log [M]
Potential toxicity Log [M] ([2]; Pat2): >−7.0 Log [M]
Potential toxicity Log [M] ([2]; Pat3): >−6.0 Log [M]
Max. Percentage Inhibition (PIN), [%] ([2]; Pat1 lung fibroblast donor): 109.3%
Max. Percentage Inhibition (PIN), [%] ([2]; Pat2 lung fibroblast donor): 101%
Max. Percentage Inhibition (PIN), [%] ([2]; Pat3 lung fibroblast donor): 98.4%
